Several values for one entry are separate records, joined by “and”; a condition that tells them apart may be missing. Identical values can stand only once. Like-named read-outs stand apart in the source and are kept apart here. Starred links: 1 amine or outer side, 2 acyl side, 3 side chain; linkers in the order of their positions; H or OH if unused. Non-standard residues stand in square brackets, D forms with d. Residues, ends and D or L forms follow the SMILES beside them. X1 = CCCC(=S)NCCCC[C@H](N[*:1])C(=O)[*:2]

Data on four compounds can be found in article PMC7070036, “An amber obligate active site-directed ligand evolution technique for phage display” (Nature Communications, 2020).

The target of one assay is T1, SIRT3 (Homo sapiens, UniProt Q9NTG7).
T1 sequence (Q9NTG7 1-399): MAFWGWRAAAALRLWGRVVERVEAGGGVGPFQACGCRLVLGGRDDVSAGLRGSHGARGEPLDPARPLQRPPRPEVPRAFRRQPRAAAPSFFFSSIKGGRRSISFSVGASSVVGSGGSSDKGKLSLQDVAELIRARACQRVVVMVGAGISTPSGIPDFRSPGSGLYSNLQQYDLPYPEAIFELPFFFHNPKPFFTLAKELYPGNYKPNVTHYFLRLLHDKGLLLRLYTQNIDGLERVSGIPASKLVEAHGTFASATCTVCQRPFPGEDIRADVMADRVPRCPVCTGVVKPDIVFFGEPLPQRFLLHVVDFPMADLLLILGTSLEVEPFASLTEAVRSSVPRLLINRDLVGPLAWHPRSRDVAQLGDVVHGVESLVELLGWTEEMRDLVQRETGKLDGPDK
The assay is described as follows: Continuous fluorogenic sirtuin inhibition assay, SIRT3. Format: biochemical. To be noted: for remaining activity at 0.5 µM: inhibitor 0.5 µM; for remaining activity at 1 µM: inhibitor 1 µM; for remaining activity at 4 µM: inhibitor 4 µM; for remaining activity at 10 µM: inhibitor 10 µM; for remaining activity at 100 µM: inhibitor 100 µM; for IC50: mean ± SD of two independent experiments. How it is done:
(§1) The continuous assay for comparing isoform specificity of S2P04 was performed using the universal fluorogenic sirtuin substrate described by Schuster et al.[41]. Briefly, the inhibition reactions were performed in 50-µL volumes at 37 °C in black, half-area, 96-well plates. The sirtuin enzyme (0.25 µM) was preincubated with different concentrations of the peptide S2P04 (0.0064–50 µM for SIRT1 and SIRT2, 0.5–100 µM for SIRT3) or TB (0.16–150 µM for SIRT1–SIRT3), and 1 mM NAD^+ in assay buffer (20 mM Tris, pH 7.8, 150 mM NaCl, 5 mM MgCl2, and 1 mM DTT) for 15 min. Following incubation, the reaction started with the addition of the fluorogenic substrate (5 µM), and product formation was monitored by measuring the fluorescence intensity every 20 s for 5 min (SIRT2) or 30 min (SIRT1 and SIRT3) in a BioTek Synergy H1 microplate reader at λex = 320 nm and λem = 408 nm (gain = 130 and read height = 7 mm). Initial rates of product formation were determined by a linear regression of the plot of fluorescence intensity vs. time and normalized relative to 0% (max inhibitor) and 100% (no inhibitor) controls. The assay was repeated to determine the IC50 values of all BuK peptides for SIRT2. IC50 values were determined by nonlinear regression of the plot of the normalized initial rate vs. inhibitor concentration using GraphPad Prism. The determined IC50 values are provided in Supplementary Table 2, and inhibition curves can be seen in Supplementary Fig. 20.

The target of another assay is T2, SIRT1 (Homo sapiens, UniProt Q96EB6).
T2 sequence (Q96EB6 1-747): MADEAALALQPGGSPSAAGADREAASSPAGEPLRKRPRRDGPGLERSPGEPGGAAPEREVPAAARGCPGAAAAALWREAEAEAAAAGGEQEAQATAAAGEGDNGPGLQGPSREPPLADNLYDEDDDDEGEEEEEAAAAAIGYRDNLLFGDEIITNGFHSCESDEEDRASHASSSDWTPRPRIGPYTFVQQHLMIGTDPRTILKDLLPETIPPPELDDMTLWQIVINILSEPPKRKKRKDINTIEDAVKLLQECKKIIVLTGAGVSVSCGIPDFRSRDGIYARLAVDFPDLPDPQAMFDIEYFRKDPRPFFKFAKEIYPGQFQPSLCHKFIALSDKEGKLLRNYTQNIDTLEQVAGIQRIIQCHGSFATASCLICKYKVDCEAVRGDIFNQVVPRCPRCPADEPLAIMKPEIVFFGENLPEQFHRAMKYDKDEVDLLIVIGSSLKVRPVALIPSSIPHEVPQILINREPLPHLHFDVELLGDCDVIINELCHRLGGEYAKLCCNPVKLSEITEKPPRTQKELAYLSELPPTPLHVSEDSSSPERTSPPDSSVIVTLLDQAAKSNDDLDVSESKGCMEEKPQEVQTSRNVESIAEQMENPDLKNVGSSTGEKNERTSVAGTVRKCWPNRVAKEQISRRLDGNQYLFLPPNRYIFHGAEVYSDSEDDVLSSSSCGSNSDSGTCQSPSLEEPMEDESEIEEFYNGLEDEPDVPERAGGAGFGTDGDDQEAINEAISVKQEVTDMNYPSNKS
The assay is described as follows: Continuous fluorogenic sirtuin inhibition assay, SIRT1. To be noted: for remaining activity at 0.5 µM: inhibitor 0.5 µM; for IC50: mean ± SD of two independent experiments. Format: biochemical. As to the method: as §1

Another assay concerns the target T3, SIRT2 (Homo sapiens, UniProt Q8IXJ6).
T3 sequence (Q8IXJ6 1-389): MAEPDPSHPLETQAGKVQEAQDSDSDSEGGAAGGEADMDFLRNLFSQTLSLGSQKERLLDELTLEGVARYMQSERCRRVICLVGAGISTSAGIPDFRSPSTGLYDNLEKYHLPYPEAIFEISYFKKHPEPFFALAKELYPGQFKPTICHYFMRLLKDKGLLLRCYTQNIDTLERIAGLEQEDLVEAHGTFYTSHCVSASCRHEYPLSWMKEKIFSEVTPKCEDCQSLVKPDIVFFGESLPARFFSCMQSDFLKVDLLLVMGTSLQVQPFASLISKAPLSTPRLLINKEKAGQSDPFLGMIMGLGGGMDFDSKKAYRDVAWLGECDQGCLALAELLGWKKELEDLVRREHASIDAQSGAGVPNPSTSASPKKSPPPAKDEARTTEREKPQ
The assay is described as follows: Continuous fluorogenic sirtuin inhibition assay, SIRT2 (tBuK peptides, TB). The assay is classed as biochemical. How it is done: as §1

The test system of assay [1] is amber-obligate phagemid library. The experiment in a line: Phage yield on expression of the amber-obligate phagemid library with ncAAs (cfu assay). The arrangement: species or system E. coli Top10. Particulars: BuKRS.
The mark [2] stands for this setting: read-out: Normalized Activity, SIRT3.
[3] abbreviates: read-out: Normalized Activity, SIRT1.
The mark [4] stands for this setting: inhibitor 0.5 µM, read-out: Normalized Activity, SIRT2.
Setting [5] is: inhibitor 0.5 µM, single trials.
The mark [6] stands for this setting: inhibitor 0.5 µM, single trials, 0.5 µM.
Where [7] appears, read: inhibitor 1 µM, read-out: Normalized Activity, SIRT2.
Where [8] appears, read: inhibitor 1 µM, single trials, 1 µM.
The mark [9] stands for this setting: inhibitor 4 µM, read-out: Normalized Activity, SIRT2.
Where [10] appears, read: inhibitor 4 µM, single trials, 4 µM.
Where [11] appears, read: inhibitor 50 µM, single trials, 50 µM.
[12] abbreviates: mean ± SD of two independent experiments, read-out: IC50, SIRT2.

Broadly, the IC50 is the concentration that inhibits the measured activity by half. Turning to `CCCC(=S)NCCCC[C@H](NC(=O)OCc1ccccc1)C(=O)Nc1ccccc1` [TB, reference compound], the “inhibition of SIRT3” value on SIRT3 (0.16–150 µM) is given as 0 = Activity of highest inhibitor *TB for SIRT3 showed no inhibiton. The figures for the remaining activity at 0.5 µM at SIRT3 (setting [2]), on SIRT1 (setting [3]) and at SIRT2 (setting [4]) were 90.6%, 98.9% and 112%, respectively. The remaining activity at 1 µM is 91.2% at SIRT3 (setting [2]); 99% at SIRT1 (inhibitor 1 µM, read-out: Normalized Activity, SIRT1); 80.3% on SIRT2 (setting [7]). For the same compound, the remaining activity at 4 µM on SIRT3 (setting [2]) came out at 93.9%; at SIRT1 (inhibitor 4 µM, read-out: Normalized Activity, SIRT1) it was 75%; on SIRT2 (setting [9]), 40.6%. The remaining activity at 10 µM on SIRT3 (setting [2]) stood at 92.4%; on SIRT1 (inhibitor 10 µM, read-out: Normalized Activity, SIRT1), 55.9%; on SIRT2 (inhibitor 10 µM, read-out: Normalized Activity, SIRT2), 6.05%. For the same compound, the remaining activity at 100 µM on SIRT3 (setting [2]) stood at 79.9%. Also, the IC50 on SIRT3 was more than 150 µM; at SIRT1 it was 9.62 ± 0.09 µM; on SIRT2 (0.25 µM SIRT2, 1 mM NAD+, 5 µM fluorogenic substrate, 15 min preincubation, n = 2, read-out: IC50) it was 3.11 ± 0.045 µM; on SIRT2 (setting [12]), 3.11 ± 0.04 µM. For the same compound, the remaining activity at 150 µM at SIRT1 (inhibitor 150 µM, 100 = Activity w/o inhibitor, 0 = Activity of highest inhibitor, read-out: Normalized Activity, SIRT1) was found to be 0%; on SIRT2 (inhibitor 150 µM, 100 = Activity w/o inhibitor, 0 = Activity of highest inhibitor, read-out: Normalized Activity, SIRT2) it was 0%. At SIRT2 (setting [5]), the activity at 0.5 µM was 112%. Besides, the “%Activity, SIRT2” value at SIRT2 (setting [6]) was 98.9568%; at SIRT2 (setting [8]) it was 81.929%; at SIRT2 (setting [10]), 42.8707%; on SIRT2 (inhibitor 10 µM, single trials, 10 µM), 11.4809%; at SIRT2 (setting [11]) it was -6.644% and -4.551%; at SIRT2 (inhibitor 100 µM, (Activity/Activity w/o inhibitor)*100, single trials, 100 µM), -5.573% and -9.821%. The activity at 1 µM on SIRT2 (inhibitor 1 µM, single trials) was determined as 80.3%. Besides, the activity at 4 µM at SIRT2 (inhibitor 4 µM, single trials) turned out to be 40.6%. In addition, at SIRT2 (inhibitor 10 µM, single trials), the activity at 10 µM stood at 6.05%.

Take `CCCC(=S)NCCCC[C@H](NC(=O)[C@@H](NC(=O)[C@@H](NC(=O)[C@H](CS)NC(=O)[C@@H](N)[C@@H](C)O)[C@@H](C)O)C(C)C)C(=O)N[C@H](C(=O)NCC(N)=O)[C@@H](C)CC` [S2P04-tBuK] (H-TCTV[X1]IG-NH2): the remaining activity at 0.5 µM amounted to 98.2% on SIRT3 (setting [2]), 26.2% on SIRT1 (setting [3]) and 5.68% on SIRT2 (setting [4]). The remaining activity at 1 µM came out at 96.2% at SIRT3 (setting [2]) and 3.34% at SIRT2 (setting [7]). Moreover, the remaining activity at 2 µM stood at 103% at SIRT3 (inhibitor 2 µM, read-out: Normalized Activity, SIRT3); 2.97% on SIRT1 (inhibitor 2 µM, read-out: Normalized Activity, SIRT1); 3.21% at SIRT2 (inhibitor 2 µM, read-out: Normalized Activity, SIRT2). In addition, the figures for the remaining activity at 4 µM at SIRT3 (setting [2]) and at SIRT2 (setting [9]) were 82.4% and 2.33%, respectively. Moreover, the remaining activity at 10 µM at SIRT3 (setting [2]) came out at 59.8%. Moreover, the remaining activity at 25 µM at SIRT3 (inhibitor 25 µM, read-out: Normalized Activity, SIRT3) was 29.6%. The remaining activity at 50 µM at SIRT3 (inhibitor 50 µM, read-out: Normalized Activity, SIRT3) amounted to 9.72%; at SIRT1 (inhibitor 50 µM, read-out: Normalized Activity, SIRT1), 0%; on SIRT2 (inhibitor 50 µM, read-out: Normalized Activity, SIRT2), 0%. For the same compound, at SIRT3 (setting [2]), the remaining activity at 100 µM was 0%. Also, the IC50 on SIRT3 was 14 ± 1 µM; at SIRT1, 0.25 ± 0.05 µM; at SIRT2 (setting [12]), 0.092 ± 0.003 µM. Moreover, the remaining activity at 0.0064 µM on SIRT1 (inhibitor 0.0064 µM, read-out: Normalized Activity, SIRT1) was found to be 92.8%; on SIRT2 (inhibitor 0.0064 µM, read-out: Normalized Activity, SIRT2) it was 94.8%. Further, the remaining activity at 0.032 µM on SIRT1 (inhibitor 0.032 µM, read-out: Normalized Activity, SIRT1) turned out to be 87.5%; on SIRT2 (inhibitor 0.032 µM, read-out: Normalized Activity, SIRT2), 85.2%. Also, the activity at 0.0064 µM at SIRT2 (inhibitor 0.0064 µM, single trials) came to 85.9%. In addition, the “%Activity, SIRT2” value worked out at 94.59% on SIRT2 (inhibitor 0.0064 µM, single trials, 0.0064 µM); 83.831% on SIRT2 (inhibitor 0.032 µM, single trials, 0.032 µM); 6.5384% on SIRT2 (setting [6]); 4.6849% on SIRT2 (setting [8]); 4.4288% at SIRT2 (inhibitor 2 µM, single trials, 2 µM); 3.5157% on SIRT2 (setting [10]). The “%Activity, SIRT2” value on SIRT2 (setting [11]) stood at 1.0081%. Also, the activity at 0.032 µM at SIRT2 (inhibitor 0.032 µM, single trials) stood at 77.2%. Also, the activity at 0.5 µM on SIRT2 (setting [5]) was determined as 5.65%. On SIRT2 (inhibitor 1 µM, single trials), the activity at 1 µM was 3.54%. Further, the activity at 2 µM on SIRT2 (inhibitor 2 µM, single trials) stood at 3.42%. For the same compound, at SIRT2 (inhibitor 4 µM, single trials), the activity at 4 µM stood at 2.63%. At SIRT2 (inhibitor 50 µM, single trials), the activity at 50 µM is 0.535%.

As to `CCCC(=O)NCCCC[C@H](N)C(=O)O` [compound 5, N ^Ɛ-butyryl-L-lysine], the “fold increase in particle yield vs no ncAA” value in assay [1] is approximately 100 fold.

Regarding `C/C=C/C(=O)NCCCC[C@H](N)C(=O)O` [compound 6, N^Ɛ-crotonyl-L-lysine], the “fold increase in particle yield vs no ncAA” value in assay [1] is given as approximately 100 fold. The “Phage Yields, ncAA” value in assay [1] (Fig. 4e, single trials) is listed as 3.00E+09 CFU/mL.
